Patent publication US11857634B2, “Cationic amphiphilic polymers for codelivery of hydrophobic agents and nucleic acids” (University of Pittsburgh—Of the Commonwealth System of …, priority 2018, dated 2024)
In brackets after ≈: the same amount, converted by molar mass. Entries after “also recorded” stand apart in the source; their conditions may differ.

Legend:
[1] = In vitro DOX release from POEG-st-Pmor micelles by dialysis; format: physicochemical; conditions: first 4 hours, PBS, 37 °C
Experimental: In vitro drug release study for POEG-st-Pmor micelles. The in vitro DOX release kinetics for the POEG-st-Pmor micelles was determined by a dialysis method. Briefly, 0.5 ml of DOX-loaded micelles and micelles co-loaded with DOX and IL-36γ plasmid at a DOX concentration of 0.5 mg/mL were placed into a dialysis bag (MW cutoff 3,500), respectively. The dialysis bag was incubated in 100 mL PBS with gentle shaking at 37° C. Two ml of PBS solution outside of the dialysis bag was collected at different time points and equal amount of fresh PBS was added back. The concentrations of released DOX were determined by HPLC.

[2] = Cellular uptake of DOX by confocal laser scanning microscopy (POEG-st-Pmor); format: cell-based; conditions: 2 h of incubation
Source text: The cellular uptake of DOX-loaded POEG-st-Pmor micelles was investigated by confocal laser scanning microscopy with free DOX as a control. […] This may, for example, be a result of different cellular uptake routes of free DOX and DOX micelles.

[3] = tested on: 4T1.2 breast cancer lung metastasis; assay: Mouse model of breast cancer lung metastasis (4T1.2), POEG-st-Pmor formulations; format: in vivo, mice; conditions: i.v. every three days for three times; DOX 5 mg/kg, plasmid 50 μg per mouse
Experimental: Mouse model of breast cancer lung metastasis. Female Balb/c mice were injected with 2×10^5 4 T1.2 cells through the tail vein. Five days after tumor cell injection, mice were randomly divided into 6 groups. POEG-st-Pmor was chosen as a representative carrier system for codelivery of IL-36γ plasmid and DOX. […] The PBS treatment group was used as control. DOX dosage was 5 mg/kg and plasmid dosage was 50 μg per mouse. Lung tissues were harvested and weighted 11 days after the first injection. Pulmonary metastases were enumerated by intra-tracheal injection of India ink solution. India ink-injected lungs were washed in Feket's solution (300 ml 70% EtOH, 30 ml 37% formaldehyde and 5 ml glacial acetic acid) and white tumor nodules against a dark blue lung background were counted.
Histopathological analysis. The lung tissues were harvested and fixed in 10% formalin after the above treatments. The fixed samples were then embedded in paraffin and the tissue sections were stained with hematoxylin/eosin and analyzed for the presence of metastases under microscope. The total number of metastases per lung section was counted in different treatment groups.

[4] = tested on: immune cells in lung tissues; assay: Tumor-infiltrating lymphocytes and MDSCs in tumor-bearing lungs, flow cytometry (POEG-st-Pmor); format: in vivo, mice; conditions: compared to untreated control group
Experimental: Analysis of tumor-infiltrating lymphocytes and myeloid-derived suppressor cells. Lung tissues were collected in serum free RPMI medium and cut mechanically with scissors. Liberase TL (0.3 mg/ml) and DNase I (0.3 mg/ml) were used to digest the lung tissues and tumor nodules. Tissues were further grinded and filtered through a […] cell strainer. TILs and MDSC cells were further purified and stained with fluorescence-labeled antibody for flow cytometry analysis using a FACS flow cytometer.

[5] = DOX release from POEG-PCre micelles by dialysis against DPBS; format: physicochemical; conditions: first 4 h, DPBS pH 7.4, 37 °C
Experimental: The release kinetics of DOX from DOX-loaded POEG-PCre micelles was investigated by dialysis against DPBS of pH 7.4 at 37° C. […] To the contrary, only 16% of DOX was released from DOX/POEG-PCre micelles in first 4 h, and less than 40% of DOX was released for an extended period of 96 h.

4T1.2 cells [6] = assay: Intracellular co-delivery of DOX and MFP488-labeled tRNA-mir-34a, confocal microscopy; format: cell-based, murine; conditions: 4 h
Experimental: To monitor intracellular co-delivery of DOX and tRNA-mir-34a, tRNA-mir-34a was labeled with MFP488 fluorescent dye to visualize the cell uptake of tRNA-mir-34a along with red fluorescence of DOX. 4T1.2 cells were incubated for 4 h with micelle complexes carrying DOX and/or MFP488-labeled tRNA-mir-34a and then observed under a confocal microscope. Naked tRNA-mir-34a without any transfection agent was used as a negative control.

Dicer = assay: Induction of Dicer after treatment; format: cell-based; conditions: dose dependent
4T1.2 cells [7] = assay: In vitro cytotoxicity, MTT assay (POEG-PCre formulations); format: cell-based, murine; conditions: 48 h; DOX 7.8-1,000 ng/mL, tRNA-mir 0.78-100 nM, carrier 78-10000 ng/mL
Experimental: The in vitro cytotoxicity of DOX+tRNA-mir-34a co-loaded POEG-PCre micelles was evaluated by MTT assay. Tumor cells were treated with various formulations for 48 h, with the doses of DOX, tRNA-mir, and POEG-PCre carrier ranging from 7.8 to 1,000 ng/mL, 0.78 nM to 100 nM, and 78 ng/mL to 10000 ng/mL, respectively. […] A similar trend was also observed in MDA-MB-231 breast cancer cells (FIG. 14B).

breast cancer cells = assay: Apoptosis assay, Annexin V/propidium iodide flow cytometry; format: cell-based
Experimental: The enhanced cytotoxicity of DOX+tRNA-mir-34a-co-loaded nanocomplexes was assessed via apoptosis assay. Cell apoptosis was evaluated quantitatively by Annexin V/propidium iodide flow cytometry.

4T1.2 cancer cells = assay: Cell migration, wound closure assay; format: cell-based, murine; conditions: 4T1.2, 24 h
Source text: Besides cancer cell viability, cell migration represents a critical process for tumor progression and metastasis. MiR-34a has been reported to be functional as an anti-metastatic miRNA by directly targeting CD44 and NOTCH-1. Therefore, the effect of tRNA-mir-34a and DOX co-loaded nanocomplexes on the cell migration was investigated using the wound closure assay.

4T1.2 tumor metastasis = assay: Breast cancer lung metastasis model (4T1.2), POEG-PCre formulations; format: in vivo, mice; conditions: i.v. every 3 d for 3 times, analysed 5 days after last treatment
Experimental: The in vivo anti-tumor efficacy of DOX+tRNA-mir-34a co-loaded nanocomplexes was evaluated in a breast cancer lung metastasis model, generated by tail-vein injection of 4T1.2 tumor cells into female Balb/c mice. Five days after tumor inoculation, various treatments were applied to each group of mice (n=5) via i.v. administration every 3 d for 3 times. The tumor burdens in the lungs were analyzed 5 days after the last treatment. […] No significant decrease of body weight was observed, indicating the safety of the formulation (FIG. 15C).
To further confirm the anticancer efficacy, H&E staining and immunohistochemical analysis of Ki67 were performed in tumor-bearing lungs.

[8] = Toxicity: body weight, blood chemistry, H&E staining of major organs; set-up: species or system mice; conditions: mouse, in vivo
Experimental: In addition, blood chemistry tests were performed to evaluate the effect of our formulations on liver and kidney functions. […] Moreover, the H & E staining of major organs was carried out to further evaluate the potential toxicity of different treatments.

[9] = tested on: immune cells in tumor-bearing lungs; assay: Immune cells in tumor-bearing lungs (POEG-PCre formulations); set-up: species or system mice; conditions: mouse, in vivo
Source text: Treatment with tRNA-mir-34a alone or tRNA-mir-34a/DOX combination reduced the numbers of PD1+ CD8 cells (FIG. 16D) and T-regulatory cells (Tregs) (FIG. 16E).

[10] = Intracellular uptake and distribution of DOX at pH 6.8 and 7.4, CLSM; format: cell-based; conditions: 4 h incubation
Source text: Intracellular uptake and distribution of DOX-loaded micelles and IL-12/DOX co-loaded PMet-P(cdmPEG2K) micelleplexes was investigated by CLSM.

[11] = tested on: 4T1.2 breast cancer cells; assay: In vitro cytotoxicity, MTT assay (POEG-st-Pmor formulations); conditions: 4T1.2 cells, 72 h
Experimental: Briefly, 4T1.2 cells (2,000 cells/well) were seeded in 96-well plates for overnight and were treated with various concentrations of DOX formulations for 72 h. MTT solution was added to each well and MTT formazan was solubilized by DMSO after 2 h of incubation. The absorbance in each well was measured by a microplate reader at a wavelength of 570 nm. Cell viability was calculated as [(ODtreat−ODblank)/(ODcontrol−ODblank)×100%]. The cytotoxicity of POEG-st-Pmor micelles alone was similarly tested in 4T1.2 cells as described above.

Question: Which DOX released [1] does the source give for COc1cccc2c1C(=O)c1c(O)c3c(c(O)c1C2=O)C[C@@](O)(C(=O)CO)C[C@@H]3O[C@H]1C[C@H](N)[C@H](O)[C@H](C)O1 [free DOX, Doxorubicin] here?
Answer: The DOX released was 80%.

Question: And the “Intracellular location of DOX signals” value [2]?
Answer: The value was “largely found in the nucleus”.

Question: And the “Antitumor activity / inhibition of lung metastasis” value [3]?
Answer: Its value is “significant inhibition of lung metastasis; also recorded: significant activity”.

Question: What about the “CD4+ T cells in lung tissues” value [4] of the same molecule?
Answer: Its value is “significant increase”.

Question: And the “CD8+ T cells in lung tissues” value [4]?
Answer: The value was “significant increase”.

Question: And the DOX released [5]?
Answer: The DOX released was “more than 80%”.

Question: What about the “Intracellular location of fluorescence signals” value (4T1.2 cells [6]) of the same molecule?
Answer: The value was “largely found in the nucleus”.

Question: And the Dicer expression (Dicer)?
Answer: Its Dicer expression is “induction of Dicer”.

Question: And the “Cell growth inhibition / cytotoxicity” value (4T1.2 cells [7])?
Answer: Its value is “inhibited the proliferation of tumor cells in a dose dependent manner”.

Question: What about the Cell apoptosis (breast cancer cells) of the same molecule?
Answer: Its Cell apoptosis is roughly 31%.

Question: What about the “Inhibition of cell migration” value (4T1.2 cancer cells) of the same molecule?
Answer: Its value is roughly 40%.

Question: What about the “Inhibition of lung metastasis / tumor nodules in lungs” value (4T1.2 tumor metastasis) of the same molecule?
Answer: Its value is “Dramatic reduction in the number of tumor nodules”.

Question: What about the “Pathological changes, H&E staining of major organs” value [8] of the same molecule?
Answer: The value was “signs of myocytolysis and myofibrillolysis with fibrils dearrangement; also recorded: hepatocellular vacuolation”.

Question: And the “Numbers of CD4 cells in tumor-bearing lungs” value [9]?
Answer: The value was “significant increase”.

Question: And the “Numbers of CD8 cells in tumor-bearing lungs” value [9]?
Answer: Its value is “significant increase”.

Question: What about the “Numbers of MDSC” value [9] of the same molecule?
Answer: The value was “trend of decreases”.

Question: And the “Numbers of functional CD8 (IFN-γ+ CD8) cells” value [9]?
Answer: Its value is “trend of increase”.

Question: And the “Cellular uptake compared with DOX-loaded micelles” value [10]?
Answer: The value was “slightly stronger fluorescence signal”.

Question: What about the “Intracellular DOX fluorescence at pH 6.8 versus pH 7.4” value [10] of the same molecule?
Answer: The value was “not significantly affected by pH”.

Question: And the Cytotoxicity ([11]; DOX 4 to 1000 ng/mL)?
Answer: The Cytotoxicity was “dose-dependent cell killing profile”.

Question: And the IC50 ([11]; MTT, as DOX)?
Answer: Its IC50 is 0.13 µg/mL (≈ 0.239 µM).
